Broadly, the pIC50 is the negative decadic logarithm of the IC50, by convention in mol/L. Read a low pIC50 as a large IC50.

These results are taken from patent US10633389B2, “CARM1 inhibitors and uses thereof” (Epizyme, Inc., priority 2013, dated 2020).

pIC50: −log10 of the molar value. Bounds are passed on as bounds.

One assay deals with asymmetric di-methyl PABP1 in RKO cells. In words: RKO methylation assay, In Cell Western (ICW) for asymmetric di-methyl PABP1. Type of assay: cell-based. The conditions noted are these: Cellular potencies, ICW PABP1me2a. In outline:
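RKO cells treated with compound for 48 h at 37 °C, then fixed, permeabilized and immunostained for asymmetric di-methyl PABP1, with DRAQ5 as DNA stain. Infrared 700/800 nm signal ratio normalized to DMSO and 20 μM reference-compound controls; IC50 from triplicate wells.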
The molecule `CNC[C@@H](O)COc1ccc(Cl)c(-c2nc(-c3c(C)noc3C)c(C)c(N3Cc4c(C)nn(C)c4C3)n2)c1` [Example 237-3] had a pIC50 of over 5.30.

Staying with this assay, now noted: Homo sapiens, RKO, Cellular potencies, ICW PABP1me2a.
Turning to `CNC[C@@H](O)COc1ccc(Cl)c(-c2nc(-c3c(C)noc3C)c(C)c(N3Cc4cccc(F)c4C3)n2)c1` [Example 267-3], the pIC50 was over 5.30.
With `CNCC(O)COc1cccc(-c2nc(N[C@H]3C[C@H](O)C3)cc(-c3c(C)noc3C)n2)c1` (stereo partly shown) [Example 43-1a], the pIC50 is 4.70 to 5.00.
For the molecule `CCOC(=O)N1CCCCC1CNc1nc(-c2cc(OC[C@@H](O)CNC)ccc2Cl)nc(-c2c(C)noc2C)c1C` (stereo partly shown) [Example 27-3], the negative-log IC50 (pIC50) was over 5.30.
`CNCC(O)COc1cccc(-c2nc(NCC3CCOCC3)c(F)c(-c3c(C)noc3C)n2)c1` (stereo not shown) [Example 143-1a] showed a pIC50 of over 5.30.
Same read-out and setting: as for `CNC[C@@H](O)COc1ccc(Cl)c(-c2nc(N[C@H]3CCOC3)c(C)c(-c3c(C)noc3C)n2)c1` [Example 111-3], the figure is over 5.30.
Still for that read-out and setting: under `CNCC(O)COc1cccc(-c2nc(NC3CCOCC3C)c(C)c(-c3c(C)noc3C)n2)c1` (stereo not shown) [Example 269-1a] stands over 5.30; under `CNC[C@@H](O)COc1ccc(Cl)c(-c2nc(N[C@H]3CCO[C@@H](C)C3)c(C)c(-c3c(C)noc3C)n2)c1` [Example 128-3], over 5.30.
Molecule `CNCC(O)COc1cccc(-c2nc(-c3csnc3C)cc(N(C)C3CCOCC3)n2)c1` (stereo not shown) [Example 493-1a] gave a negative logarithm of the IC50 (pIC50) of over 5.30.
The molecule `CNC[C@H](O)COc1ccc(F)c(-c2nc(-c3c(C)noc3C)c(C)c(N3CCC4(CC3)CN(S(C)(=O)=O)C4)n2)c1` [Example 76-3] had a pIC50 of over 5.30.
Turning to `CNCC(O)COc1cccc(-c2nc(-c3c(C)noc3C)cc(N(C)C3CCN(C(=O)OC)CC3)n2)c1` (stereo not shown) [Example 90-1a], the pIC50 was over 5.30.
`CNCC(O)COc1cccc(-c2nc(NC3CCOC3)c(C)c(N3CCN(CC(F)(F)F)CC3)n2)c1` (stereo not shown) [Example 449-1a] had a pIC50 of over 5.30.
Same read-out and setting: as for `Cc1noc(C)c1-c1cc(NC2CCOCC2)nc(-c2cccc(OC[C@H](O)CN)c2)n1` [Example 16-1a], the figure is 5.00 to 5.30; as for `CNCC(O)COc1cccc(-c2nc(N[C@@H]3CCOC3)c(C)c(N3CCC4(CC3)CNC(=O)C4)n2)c1` (stereo partly shown) [Example 424-1a], 4.70 to 5.00.
As for `CNCC(O)COc1ccc(C)c(-c2nc(NC3CCN(C(=O)OC)CC3)c(C)c(-c3c(C)noc3C)n2)c1` (stereo not shown) [Example 125-3], the pIC50 is over 5.30.
Still for that read-out and setting: as for `CNCC(O)COc1ccc(Cl)c(-c2nc(NC3CC4(CCN(C(=O)OC)CC4)C3)c(C)c(-c3c(C)noc3C)n2)c1` (stereo not shown) [Example 37-3], the figure is over 5.30; as for `CNCC(O)COc1cccc(-c2nc(-c3cn(S(C)(=O)=O)c4ncncc34)cc(N(C)C3CCOCC3)n2)c1` (stereo not shown) [Example 483-1a], over 5.30; as for `CNCC(O)COc1cccc(-c2nc(C3CCNCC3)cc(N(C)C3CCOCC3)n2)c1` (stereo not shown) [Example 615-1a], 4.70 to 5.00.
Still for that read-out and setting: as for `CNC[C@@H](O)COc1ccc(Cl)c(-c2nc(-c3c(C)noc3C)c(C)c(N3CCC4(CCOC4)C3)n2)c1` (stereo partly shown) [Example 288-3], the figure is over 5.30; as for `CNCC(O)COc1cccc(-c2nc(NCC3(N4CC(F)(F)C4)CCOCC3)c(C)c(-c3c(C)noc3C)n2)c1` (stereo not shown) [Example 302-1a], over 5.30.
Still for that read-out and setting: as for `CNC[C@@H](O)COc1ccc(Cl)c(-c2nc(N[C@H]3CCN(C(=O)OC)[C@H](C)C3)c(C)c(-c3c(C)noc3C)n2)c1` [Example 102-3], the figure is over 5.30; as for `CNC[C@@H](O)COc1ccc(Cl)c(-c2nc(-c3c(C)noc3C)c(C)c(N3CCOC3=O)n2)c1` [Example 187-3], 4.70 to 5.00; as for `CNCC(O)COc1cccc(-c2nc(NC(C)C3CCOCC3)c(C)c(-c3c(C)noc3C)n2)c1` (stereo not shown) [Example 157-1a], over 5.30.
The molecule `CNC[C@@H](O)COc1ccc(Cl)c(-c2nc(N[C@H]3CCN(C(=O)OC)[C@@H](C)C3)c(C)c(-c3c(C)noc3C)n2)c1` [Example 169-3] showed a pIC50 of over 5.30.
On the same count and under the same terms, under `CNCC(O)COc1cccc(-c2nc(-c3c(C)noc3C)cc(N3CCN(CC(F)F)CC3)n2)c1` (stereo not shown) [Example 79-1a] stands over 5.30; under `CNCC(O)COc1cccc(-c2nc(NC3CCOCC3)cc(-c3cnn(CC(C)C)c3)n2)c1` (stereo not shown) [Example 51-1], 4.70 to 5.00; under `CCS(=O)(=O)N1CC2(CCCN(c3nc(-c4cccc(OCC(O)CNC)c4)nc(-c4c(C)noc4C)c3C)C2)C1` (stereo not shown) [Example 296-1a], 5.00 to 5.30.
The same measure, in the same setting: as for `CNCC(O)COc1cccc(-c2nc(NCC3CCOCC3)cc(-c3c(C)noc3C)n2)c1` (stereo not shown) [Example 78-1a], the figure is 5.00 to 5.30.
On the same count and under the same terms, as for `CNC[C@@H](O)COc1ccc(Cl)c(-c2nc(-c3c(C)noc3C)c(C)c(N3CC4(CCN(C(=O)OC(C)C)CC4)C3)n2)c1` [Example 284-3], the figure is over 5.30; as for `CNCC(O)COc1ccc(Cl)c(-c2nc(NCC3CCOC3)c(C)c(-c3c(C)noc3C)n2)c1` (stereo not shown) [Example 30-3], over 5.30; as for `CNCC(O)COc1cccc(-c2nc(-c3c(C)noc3C)c(C)c(N3CCN4C(=O)OC[C@@H]4C3)n2)c1` (stereo partly shown) [Example 110-1a], 5.00 to 5.30.
Consider `Cc1noc(C)c1-c1cc(NC2CCOCC2)nc(-c2cccc(OC[C@@H](O)CN)c2)n1` [Example 15-1a], for which the pIC50 was 4.70 to 5.00.
The same measure, in the same setting: as for `CCS(=O)(=O)N1CCN(c2nc(-c3cccc(OCC(O)CNC)c3)nc(NC3CCOC3)c2C)CC1(C)C` (stereo not shown) [Example 448-1a], the figure is over 5.30.
The same measure, in the same setting: under `CCOC(=O)N1CCC(N(C)c2cc(-c3c(C)noc3C)nc(-c3cccc(OCC(O)CNC)c3)n2)CC1` (stereo not shown) [Example 172-1a] stands over 5.30; under `CNCC(O)COc1cc(Cl)cc(-c2nc(-c3ccncc3C3CC3)cc(N(C)C3CCOCC3)n2)c1` (stereo not shown) [Example 522-1a], 5.00 to 5.30.
Same read-out and setting: under `CNCC(O)COc1cccc(-c2nc(NC3CCCN(C(=O)C4CC4)C3)c(C)c(-c3c(C)noc3C)n2)c1` (stereo not shown) [Example 247-1a] stands over 5.30; under `CNCC(O)COc1cccc(-c2nc(-c3c(C)noc3C)cc(N(C)c3cnc(C)nc3)n2)c1` (stereo not shown) [Example 61-1a], 4.70 to 5.00.
As to `CCOC(=O)N1CCOC[C@H]1CNc1nc(-c2cc(OC[C@@H](O)CNC)ccc2F)nc(-c2c(C)noc2C)c1C` [Example 59-3], the pIC50 was over 5.30.
Same read-out and setting: as for `CCO[C@H]1CCC[C@H]1Nc1nc(-c2cc(OC[C@H](O)CNC)ccc2Cl)nc(-c2c(C)noc2C)c1C` [Example 242-3], the figure is over 5.30.
On the same count and under the same terms, as for `CNCC(O)COc1cccc(-c2nc(NCC3(C)CCOCC3)c(C)c(-c3c(C)noc3C)n2)c1` (stereo not shown) [Example 115-1a], the figure is over 5.30.
Turning to `CNC[C@@H](O)COc1ccc(Cl)c(-c2nc(N[C@H]3CO[C@H](C)C3)c(C)c(-c3c(C)noc3C)n2)c1` [Example 198-3], the negative logarithm of the IC50 (pIC50) is over 5.30.
Same read-out and setting: under `CNC[C@@H](O)COc1ccc(Cl)c(-c2nc(-c3c(C)noc3C)c(C)c(N3Cc4cnc(C)nc4C3)n2)c1` [Example 245-3] stands over 5.30.
Same read-out and setting: as for `CNCC(O)COc1cccc(-c2nc(N3CCNC(=O)C3)cc(N(C)C3CCOCC3)n2)c1` (stereo not shown) [Example 575-1a], the figure is 4.70 to 5.00; as for `CNCC(O)COc1cccc(-c2nc(-c3c(C)noc3C)cc(N3CCN(C(=O)N(C)C)[C@@H](C)C3)n2)c1` (stereo partly shown) [Example 91-1a], over 5.30; as for `CNC[C@@H](O)COc1ccc(Cl)c(-c2nc(-c3c(C)noc3C)c(C)c(N3CCC4(CC4)C3)n2)c1` [Example 234-3], over 5.30.
In turn, `CNCC(O)COc1cccc(-c2nc(NCC3CCN(C(=O)C4CC4)CC3)c(C)c(-c3c(C)noc3C)n2)c1` (stereo not shown) [Example 249-1a] gave a pIC50 of over 5.30.
Consider `CNCC(O)COc1cccc(-c2nc(-c3ccncc3)c(C)c(N(C)C3CCOCC3)n2)c1` (stereo not shown) [Example 537-1a], for which the pIC50 was 5.00 to 5.30.
`CNCC(O)COc1cccc(-c2nc(-c3cccc4ncccc34)cc(N(C)C3CCOCC3)n2)c1` (stereo not shown) [Example 616-1a]: the pIC50 is 4.70 to 5.00.
Same read-out and setting: under `CNCC(O)COc1cccc(-c2nc(-c3c(C)noc3C)cc(N3CCN(C(C)=O)C[C@H]3C)n2)c1` (stereo partly shown) [Example 39-1a] stands 5.00 to 5.30.
`CNCC(O)COc1cccc(-c2nc(N3CC4(CCNCC4)c4ccccc43)cc(N(C)C3CCOCC3)n2)c1` (stereo not shown) [Example 559-1a] showed a pIC50 of 4.70 to 5.00.
On the same count and under the same terms, under `CNC[C@H](O)COc1ccc(Cl)c(-c2nc(NCC3COCCO3)c(C)c(-c3c(C)noc3C)n2)c1` (stereo partly shown) [Example 96-3] stands over 5.30.
The same measure, in the same setting: under `CNCC(O)COc1cccc(-c2nc(-c3cncn3C)cc(N(C)C3CCOCC3)n2)c1` (stereo not shown) [Example 580-1a] stands 4.70 to 5.00; under `CCOC(=O)N1CC[C@H](Nc2nc(-c3cc(OC[C@H](O)CNC)ccc3Cl)nc(-c3c(C)noc3C)c2Cl)C1` [Example 151-3], over 5.30.
On the same count and under the same terms, under `CNCC(O)COc1cccc(-c2nc(NC3CCOC3)c(C)c(C(=O)NC3CCN(C)CC3)n2)c1` (stereo not shown) [Example 397-1a] stands 4.70 to 5.00.
Consider `CCO[C@@H]1CCC[C@@H]1N(CC)c1nc(-c2cc(OC[C@H](O)CNC)ccc2Cl)nc(-c2c(C)noc2C)c1C` [Example 254-3], for which the pIC50 was 5.00 to 5.30.
Still for that read-out and setting: under `CNCC(O)COc1cccc(-c2nc(N(C)C3CCOCC3)cc(N3C[C@H]4C[C@@H]3CN4)n2)c1` (stereo partly shown) [Example 562-1a] stands 4.70 to 5.00; under `CNCC(O)COc1ccc(Cl)c(-c2nc(NC[C@@H]3CCCO3)c(C)c(-c3c(C)noc3C)n2)c1` (stereo partly shown) [Example 7-3], over 5.30.
On the same count and under the same terms, under `CNC[C@@H](O)COc1ccc(Cl)c(-c2nc(-c3c(C)noc3C)c(C)c(N3Cc4nc(C)sc4C3)n2)c1` [Example 192-3] stands over 5.30; under `CNC[C@H](O)COc1ccc(Cl)c(-c2nc(-c3c(C)noc3C)c(C)c(N3CCC4(CC3)CN(S(C)(=O)=O)C4)n2)c1` [Example 75-3], over 5.30; under `CNC[C@@H](O)COc1ccc(Cl)c(-c2nc(N[C@@H]3CO[C@@H](C)C3)c(Cl)c(-c3c(C)noc3C)n2)c1` [Example 181-3], over 5.30.
On the same count and under the same terms, as for `CNC[C@@H](O)COc1ccc(Cl)c(-c2nc(-c3c(C)noc3C)c(C)c(N3Cc4cc(OC)cnc4C3)n2)c1` [Example 232-3], the figure is over 5.30.
